# Results published in US12310946B2, “Pharmaceutical composition for oral administration of edaravone and method of administering same” (MITSUBISHI TANABE PHARMA CORPORATION, priority 2020, dated 2025).
# What was measured:
# [1] = Clinical study #10: PK of edaravone oral formulation (formula #7, 120 mg), standard meal 30 minutes after administration vs fasted; type: in vivo, human; settings: 120 mg oral; for Cmax / Tmax / half-life / AUC(0-t): male, human, plasma, po, 120 mg, mean; for AUC(0-t): read-out: AUC0-24h
# Method: Effects of meal consumption 30 minutes after administration of the edaravone oral formulation on the pharmacokinetics of edaravone were evaluated. Specifically, a clinical study #10 described below was conducted in Japanese healthy adult male subjects. In the clinical study #10, the edaravone oral formulation of the formula #7 (edaravone content of 120 mg) in Table 11 above was used and administered orally once during the study period. […]
# As a post-administration consumption group, subjects in fasted conditions after a lapse of 10 hours or longer from meal consumption were orally administered with the edaravone oral formulation, […] Blood samples were each collected before the administration, and 15 minutes, 30 minutes, 1 hour, 1.5 hours, 2 hours, 4 hours, 6 hours, 8 hours, 12 hours, and 24 hours after the administration, and the concentrations of unchanged edaravone in plasma were measured. […] was carried out after the blood sample collection 30 minutes after the administration, and a subsequent meal was not consumed until the blood sample collection 4 hours after the administration was completed.
# On the other hand, as a fasted group for reference, the edaravone oral formulation was administered orally to different subjects in fasted conditions, blood samples were collected, and the concentrations of unchanged edaravone in plasma were measured in the same manner.
# [2] = Clinical Trial #12: PK after oral administration of edaravone solution and suspension; settings: male, human, in vivo, fasting (N = 6), mean; for AUC(0-t): read-out: AUC0-24 h
# Method: Whether or not there is an influence on pharmacokinetics by administering in forms of a solution and a suspension when administering edaravone orally was evaluated. Specifically, Clinical Trial #12 described below was conducted on healthy adult Japanese male subjects. Administration during the trial period was a single oral administration.
# Either an edaravone solution containing 60 mg of edaravone or an edaravone suspension containing 120 mg of edaravone was orally administered to subjects in a fasting state of 10 hours or longer since the last meal intake. The 60 mg or 120 mg of edaravone was dissolved or suspended in 50 mL or 10 mL of 0.1% polyvinyl alcohol solution, respectively. The edaravone solution or suspension of the respective content was administered to each of six subjects.
# [3] = Adsorption of edaravone to catheter in vitro (recovery after wash-in); type: physicochemical; settings: regardless of the material of the catheter
# Method: In administration using a catheter, catheters of various materials are used in medical facilities. Thus, whether administration is feasible with a catheter of any material was investigated by evaluating adsorption properties of catheters. That is, the edaravone oral formulation (#3) was passed through a catheter, and then the percentage of edaravone collected by washing in with water was evaluated.
# Specifically, the edaravone oral formulation was loaded into a syringe for catheter administration to give an edaravone amount of 105 mg, and the edaravone oral formulation was passed from the syringe to each of the catheters. Water at a predetermined temperature was then injected into the catheter to wash in the edaravone oral formulation. The edaravone oral formulation that passed through the catheter and the wash-in liquid were collected and mixed, and an amount of edaravone contained in the mixed liquid was measured. The edaravone oral formulation was washed in under any of the following conditions: with 10 ml of water three times, with 30 ml of water at 25° C. or 40° C. once, or with 50 mL of water at 25° C. or 40° C. once. Three measurements were made for each catheter, and the mean and SD of recovery % were calculated.
# [4] = Clinical study #2: PK of edaravone oral formulation (formula #2), fasted vs 4 h after high-fat meal; type: in vivo; settings: male, human, plasma, 100 mg, 100 mg oral, mean (n = 9)
# Method: Effects of meal consumption before administration of the edaravone oral formulation on the pharmacokinetics of edaravone were evaluated. Specifically, clinical studies #1, #2, and #3 described below were conducted on separate days in Japanese healthy adult male subjects. In each of clinical studies #1, #2, and #3, one dose each of edaravone oral formulations (edaravone suspensions) of formulas #1, #2, and #3 shown in Table 1 below were used respectively and administered orally once during the study period. For each clinical study, a reference study was conducted (reference example), in which the edaravone oral formulation was administered in fasted conditions as described below, and in each clinical study and the corresponding reference study, the edaravone oral formulation was each administered to the same subjects.
# For the high-fat meal, a meal with total calories per meal of 800 to 1000 kilocalories and calorie intake from lipid of 50% was used. For the standard meal, a meal with total calories per meal of 400 to 500 kilocalories and calorie intake from lipid of 25% was used. For the light meal, a liquid-type nutritional supplement with total calories per meal of 250 kilocalories (enteral nutritional supplement: Ensure Liquid (trade name)) was used.
# The edaravone oral formulation (formula #2) was administered orally to the subjects 4 hours after high-fat meal consumption. Blood samples were each collected before the administration, and 5 minutes, 15 minutes, 30 minutes, 1 hour, 1.5 hours, 2 hours, 4 hours, 6 hours, 8 hours, 12 hours, 24 hours, 36 hours, and 48 hours after the administration, and the concentrations of unchanged edaravone in plasma were measured. On the other hand, as a reference example, the edaravone oral formulation was administered orally to the same subjects in fasted conditions, blood samples were collected, and the concentrations of unchanged edaravone in plasma were measured in the same manner. For the administration in fasted conditions, the edaravone oral formulation was administered orally after a lapse of 10 hours or longer from the previous meal consumption. None of the subjects consumed a next meal until the blood sample collection 4 hours after the administration was completed.
# P-gp and BCRP = assay: Caco-2 transcellular transport study, efflux ratio with and without P-gp and BCRP inhibitors; type: in vitro ADME; settings: human, Caco-2
# Method: (§1) Cell membrane permeability is known to be constant regardless of the concentration of the substance when no transporter is involved. The control compounds, propranolol and mannitol, are not substrates for transporters P-gp and BCRP expressed in Caco-2 cells, and thus the values of the permeability coefficient are not considered to change depending on the concentrations used in the test. Thus, further, the following study was conducted to confirm that edaravone is not a substrate for transporters P-gp and BCRP as well.
# (§2) That is, Caco-2 cells were seeded on a 96-well plate, cultured at 37° C. for 10 to 11 days in a CO2 incubator, and then a transcellular transport study was conducted. Then, a […] was calculated. The efflux ratio was calculated as the ratio of the mean values of Papp calculated from three measurements.
# [5] = tested on: transporters P-gp and BCRP expressed in Caco-2 cells; assay: as above; type: in vitro ADME; settings: Caco-2 cells
# Method: as §1, §2
# [6] = standard meal 30 minutes after administration vs fasted
# [7] = formula #7, 30 min before low-fat meal (n = 6)
# [8] = formula #2, 4 h after high-fat meal
structure (smiles),measurement,setting,value
"CC1=NN(c2ccccc2)C(=O)C1 [Edaravone, 3-methyl-1-phenyl-2-pyrazolin-5-one]",decrease in the AUC in comparison with the fasted group,[1]; [6],about 14.5%
same,decrease in the Cmax in comparison with the fasted group,[1]; [6],about 12.6%
same,Cmax,[1]; [7],1950 ng/mL
same,Tmax,[1]; [7],0.42 h
same,half-life,[1]; [7],4.6 h
same,AUC(0-t),[1]; [7],1920 ng·h/mL
same,Cmax,"[1]; formula #7, fasted (n = 6)",1740 ng/mL
same,Tmax,"[1]; formula #7, fasted (n = 6)",0.38 h
same,half-life,"[1]; formula #7, fasted (n = 6)",5.13 h
same,AUC(0-t),"[1]; formula #7, fasted (n = 6)",2240 ng·h/mL
same,Cmax,"[2]; Cohort S1, 60 mg, Solution",755 ng/mL
same,AUC(0-t),"[2]; Cohort S1, 60 mg, Solution",816 ng·h/mL
same,Cmax,"[2]; Cohort S2, 120 mg, Suspension",1740 ng/mL
same,AUC(0-t),"[2]; Cohort S2, 120 mg, Suspension",2240 ng·h/mL
same,adsorption of edaravone on the catheters,[3],No adsorption
same,AUC(0-inf),[4]; [8],1250 ng·h/mL
same,Cmax,[4]; [8],1010 ng/mL
same,Tmax,[4]; [8],0.47 h
same,half-life,[4]; [8],7.66 h
same,AUC(0-inf),"[4]; formula #2, fasted",1650 ng·h/mL
same,Cmax,"[4]; formula #2, fasted",1810 ng/mL
same,Tmax,"[4]; formula #2, fasted",0.36 h
same,half-life,"[4]; formula #2, fasted",9.33 h
same,efflux ratio at 10 μmol/L,"P-gp and BCRP; 10 μmol/L, no inhibitor",0.9
same,efflux ratio,P-gp and BCRP; in presence or absence of inhibitors,≤ 2
same,substrate for P-gp and BCRP,[5],not a substrate for P-gp and BCRP
